Reference: ChEMBL document CHEMBL3397032, “Computer-aided discovery of aminopyridines as novel JAK2 inhibitors” (Bioorg Med Chem, 2015)
Active and inactive are the calls of the source. The calls are words filed in the database; no cut-off is given here.

Legend:
HT-29 = assay: Effect on total JAK2 protein level in IL4-induced human HT-29 cells at 1 uM to 100 uM by SDS-polyacrylamide gel electrophoresis and Western blot method; format: functional, cell-based
[1] = biological target: Tyrosine-protein kinase JAK2 (Homo sapiens, UniProt O60674); assay: Inhibition of IL4-induced JAK2 autophosphorylation in human HT-29 cells by SDS-polyacrylamide gel electrophoresis and Western blot method; format: cell-based
Chain of Tyrosine-protein kinase JAK2 (O60674 whole entry): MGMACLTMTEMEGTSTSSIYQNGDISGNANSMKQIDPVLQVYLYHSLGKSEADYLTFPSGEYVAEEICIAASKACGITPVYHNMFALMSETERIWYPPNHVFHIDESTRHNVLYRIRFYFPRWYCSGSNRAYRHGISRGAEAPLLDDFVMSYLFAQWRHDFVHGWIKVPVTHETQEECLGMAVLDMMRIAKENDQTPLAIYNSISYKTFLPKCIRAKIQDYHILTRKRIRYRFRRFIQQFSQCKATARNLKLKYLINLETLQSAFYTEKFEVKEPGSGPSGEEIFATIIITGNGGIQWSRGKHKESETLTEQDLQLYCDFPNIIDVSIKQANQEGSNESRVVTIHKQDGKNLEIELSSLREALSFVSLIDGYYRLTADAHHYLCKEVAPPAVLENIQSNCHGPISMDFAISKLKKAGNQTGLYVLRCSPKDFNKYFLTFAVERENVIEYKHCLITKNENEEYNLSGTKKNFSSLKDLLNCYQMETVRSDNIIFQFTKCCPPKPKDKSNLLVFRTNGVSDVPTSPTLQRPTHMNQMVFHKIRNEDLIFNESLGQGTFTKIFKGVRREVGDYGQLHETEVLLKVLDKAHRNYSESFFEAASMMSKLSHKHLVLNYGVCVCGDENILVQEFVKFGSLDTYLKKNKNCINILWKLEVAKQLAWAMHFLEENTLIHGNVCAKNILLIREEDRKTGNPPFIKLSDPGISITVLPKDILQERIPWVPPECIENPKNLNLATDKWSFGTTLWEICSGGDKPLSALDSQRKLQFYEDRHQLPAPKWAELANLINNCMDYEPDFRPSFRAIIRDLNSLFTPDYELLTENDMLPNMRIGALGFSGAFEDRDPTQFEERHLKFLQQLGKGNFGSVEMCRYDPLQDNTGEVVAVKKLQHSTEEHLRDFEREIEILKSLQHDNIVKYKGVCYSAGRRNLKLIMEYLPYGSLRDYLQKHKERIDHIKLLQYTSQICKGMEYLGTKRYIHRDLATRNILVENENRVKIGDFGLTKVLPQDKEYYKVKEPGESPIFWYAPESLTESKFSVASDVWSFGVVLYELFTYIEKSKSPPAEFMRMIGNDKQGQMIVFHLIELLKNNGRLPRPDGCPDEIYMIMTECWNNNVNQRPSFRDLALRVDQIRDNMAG

Row | IC50 [1] | Compound | Activity (HT-29)
1 |  | CCCCN(C)c1ncc(NS(=O)(=O)c2ccccc2C)cc1C(=O)O | inactive
2 | 9.5 µM | COc1cccc(NC(=O)c2cnc(N3CCN(c4ccccc4OC)CC3)c([N+](=O)[O-])c2)c1 | inactive
3 | 8.5 µM | COc1cccc(NC(=O)c2cnc(Nc3cccc(OC)c3)c([N+](=O)[O-])c2)c1 | inactive
4 | 6.9 µM | Cc1ccccc1S(=O)(=O)Nc1cnc(N2CCCCC2)c(C(=O)O)c1 | inactive
